Results on four molecules are retold here after publication PMC10397409, “The action of physiological and synthetic steroids on the calcium channel CatSper in human sperm” (Frontiers in Cell and Developmental Biology, 2023).

The target of one assay is T1, CatSper (Homo sapiens, UniProt Q7RTX7+Q86XQ3+Q8NEC5+Q96P56).
T1 construct: Motile spermatozoa were selected by a ‘swim-up’ procedure; endogenous in cells; host or cells: motile human spermatozoa (swim-up) from healthy donors
The assay is described as follows: Steroid-induced increase in [Ca2+]i in human sperm (Fluo-4 HTS assay, screen 1 activators). It is filed as cell-based. Conditions: for Emax: read-out: Max amplitude (%) (± SD).

For a further assay, the system named is human sperm. The assay is described as follows: Acrosome reaction in live human sperm (PSA-FITC flow cytometry). It is filed as cell-based. The settings on record: 45 min; for cells with induced acrosome reaction: steroid 10 µM, capacitated sperm, increase not significant. As for the experimental part:
The evaluation of acrosome reaction in live human sperm cells was performed using a modified version of a previously described method ([Zoppino et al., 2012]). Briefly, swim-up recovered motile spermatozoa were allowed to capacitate for 4 h at 37°C in capacitating media (HTF+) containing: 93.8 mM NaCl, 4.7 mM KCl, 0.2 mM MgSO4, 0.369 mM KH2PO4, 2.04 mM CaCl2, 20.98 mM HEPES, 2.78 mM glucose, 21.4 mM Na-lactate, 25 mM NaHCO3, 6.6 µM Na-pyruvate, and the pH was adjusted to 7.35. Capacitated sperm were then incubated for 30 min with 5 μg/mL Pisum sativum agglutinin conjugated with fluorescein isothiocyanate (PSA-FITC) and 10 μg/mL Hoechst-33342. Samples were centrifuged at 700 x g for 10 min at room temperature to remove excess dye and resuspended in HTF+. Sperm were then incubated for 45 min in the absence (DMSO) or presence of the steroids at 10 μM, or positive control P4 at 10 µM. The ionophore A23187 was also used as a positive control and incubated with sperm at 2 µM for 30 min only. PI (0.5 μg/mL) was then added to all samples which were analyzed using BDFACSAria. FITC-PSA fluorescence was detected by excitation at 475 nm and emission at 560/35 nm, PI was detected by excitation at 530 nm and emission at 675/75 nm and Hoechst was detected by excitation at 346 nm and emission at 460 nm. Hoechst-positive and PI-negative cells were classified as live cells. Doublet exclusion was performed by two-dimensional dot plot analysis of forward-scatter width (FSC-W) versus forward-scatter height (FSC-H), and side-scatter width (SSC-W) versus side-scatter height (SSC-H) on the pre-selected singlets. Data were collected from 40,000 […] per sample to define the sperm population. Based on the selected population, PI-negative and PSA-FITC-positive cells were selected as live acrosome reacted cells, whereas PI-negative and PSA-FITC-negative cells were selected as live acrosome intact cells.
(Flow cytometry measures light scatter and fluorescence of single cells or particles in a stream.)

The mark [1] stands for this setting: EC50 (±SD), increase in [Ca2+]i, dose-response 90 µM to 0.3 nM.
Where [2] appears, read: Mean EC50 µM (±SD), pooled from 3 independent experiments.
Setting [3] is: maximal amplitude of steroid-induced [Ca2+]i increase, relative to P4, 3 independent experiments.

Where two headings read alike, the source gives them in different places.

For orientation: EC50 means the midpoint of the concentration-response curve. For `C[C@]12CC[C@H](O)C[C@@H]1CC[C@@H]1[C@@H]2CC[C@]2(C)C(=O)CC[C@@H]12` [Epiandrosterone], at CatSper, the “EC02 compared with reported maximum concentration in blood serum” value is “EC02 below the reported maximum concentration found in blood serum” and the Emax was 78%. Besides, the 50% effective concentration (EC50) at CatSper (setting [1]) came out at 0.209 µM. Further, the EC50 on CatSper (setting [2]) was 0.207 µM. In addition, the “cells with induced acrosome reaction” value in the assay with human sperm was “more than 10%”.

Consider `CC(=O)[C@H]1CC[C@H]2[C@@H]3CC=C4C[C@@H](O)CC[C@]4(C)[C@H]3CC[C@]12C` [Pregnenolone], for which, at CatSper, the “EC02 compared with reported maximum concentration in blood serum” value is given as “EC02 below the reported maximum concentration found in blood serum” and the “effective concentrations as low as (dose-dependent increase in [Ca2+]i)” value was found to be 10 nM. In addition, the EC50 at CatSper (setting [1]) came out at 0.073 µM. The EC50 at CatSper (setting [2]) came to 0.07 µM. The Emax on CatSper (setting [3]) is 73%. Besides, the “cells with induced acrosome reaction” value in the assay on human sperm is given as “more than 10%”.

As for `CC(=O)[C@H]1CC[C@H]2[C@@H]3CCC4=CC(=O)CC[C@]4(C)[C@H]3CC[C@]12C` [Progesterone], the EC50 at CatSper (increase in [Ca2+]i in human sperm, read-out: EC50) turned out to be 0.0025 µM; at CatSper (increase in [Ca2+]i, dose-response 90 µM to 0.3 nM, read-out: EC50 (±SD)) it was 0.003 µM; on CatSper (pooled from 3 independent experiments, read-out: Mean EC50 µM (±SD)) it was 0.002 µM. The Emax at CatSper (setting [3]) was found to be 100%. In addition, the “effect on acrosome reaction (AR)” value in the assay with human sperm (steroids 10 µM, P4 10 µM) is “only slightly increased the AR”.

For `C[C@]12Cc3c[nH]nc3C[C@@H]1CC[C@@H]1[C@@H]2CC[C@@]2(C)[C@H]1CC[C@]2(C)O` [Stanozolol], the EC50 came to 0.285 µM on CatSper (setting [1]) and 0.081 µM at CatSper (setting [2]). For the same molecule, the “increase in [Ca2+]i” value on CatSper (at low concentrations in the nanomolar range) worked out at 30%. In addition, the Emax on CatSper is 79%. Also, the “cells with induced acrosome reaction” value in the assay on human sperm is reported as “more than 10%”.
